According to PMC11085872, “Structure-Based Design of Novel Thiazolone[3,2-a]pyrimidine Derivatives as Potent RNase H Inhibitors for HIV Therapy” (Molecules, 2024):

Key:
[1] = target: T1, HIV-1 RT-associated RNase H (Human immunodeficiency virus type 1 group M subtype B, UniProt P03366); test: RNase H polymerase-independent cleavage assay; format: biochemical; settings: for IC50: IC50, compound concentration required to reduce HIV-1 RT-associated RNase H activity by 50%; for remaining activity at 100 µM: read-out: Percentage of the control activity measured at the indicated compound concentration
T1 construct: His-tagged p66/p51 HIV-1 RT group M subtype B; His tag; made in house; host or cells: Escherichia coli strain M15 (plasmid p6HRT-prot)
Protocol: The Ar^1 and Ar^2 aromatic segments of the molecule also approach the protein surface, through hydrophobic interactions. These findings provide important information for further structural optimization. All these newly designed thiazolone[3,2-a]pyrimidine derivatives were evaluated for their inhibitory activity against HIV RT-associated RNase H, using the diketo acid RDS1643 as positive control. […] The decrease in activity observed in compounds containing a sulfonic acid group might be attributed to the excessively strong acidity of the sulfonic acid group, which could protonate the diazo group within the molecule. […] When Ar^2 was changed from a phenyl group to a naphthyl group, the activity of compound 10f gained a great improvement over that of compound 10k. […] And when a negatively charged polar group was present at the 2-position of Ar^2, the inhibitory activity is enhanced. […]
3. Biology Experimental section
3.1 Expression and purification of recombinant HIV-1 RTs.
His-tagged p66/p51 HIV-1 RT group M subtype B coded in a p6HRT-prot plasmid was expressed in the Escherichia coli strain M15.1 Heterodimeric RTs were expressed essentially and purified as described.2 E. coli cells harboring the expression vector were cultured until reaching an optical density at 600 nm of 0.7. Induction of protein expression was achieved by treating the cells with 1.7 mM isopropyl β-D-1-thiogalactopyranoside (IPTG) for a duration of 4 hours. The subsequent purification of the protein was performed using a BioLogic LP system (BioRad) employing a combination of immobilized metal affinity chromatography and ion exchange […]
To initiate the purification process, the cell pellets were resuspended in lysis buffer at a ratio of 1:2 (cell pellet volume: lysis buffer volume). The lysis buffer used consisted of 50 mM sodium phosphate buffer with a pH of 7.8, supplemented with 0.5 mg/ml lysozyme. The resuspended cells were incubated on ice for 20 minutes. Following this, NaCl was added to achieve a final concentration of 0.3 M. The cells were then subjected to sonication, with four cycles of 60 seconds each, alternating between one second on and one second off. Subsequently, the cell lysate was centrifuged at 30, 000×g for 1 […]
The supernatant obtained from the centrifugation step was loaded onto a Ni2+-NTA-Sepharose column that had been pre-equilibrated with a loading buffer consisting of 50 mM sodium phosphate buffer (pH 7.8), 0.3 M NaCl, 10% glycerol, and 10 mM imidazole. The column was washed with a buffer containing 50 mM sodium phosphate buffer (pH 6.0), 0.3 M NaCl, 10% glycerol, and 80 mM imidazole. The target protein, RT, was eluted using an imidazole gradient ranging from 0.08 M to 0.5 M in the wash buffer. Fractions containing the enzyme were collected and combined, and then diluted 1:1 with 50 mM sodium phosphate buffer (pH 7.0) containing 10% glycerol. The diluted protein sample was loaded onto a Hi-trap heparin HP column that had been pre-equilibrated with 10 column volumes of a loading buffer consisting of 50 mM sodium phosphate buffer (pH 7.0), 10% glycerol, and 150 mM NaCl. The column was washed with the loading buffer, and the RT enzyme was eluted using Elute Buffer 2, which
(1 picture or pasted object on this page, not shown here) […]
comprised 50 mM sodium phosphate buffer (pH 7.0), 10% glycerol, and 1 M NaCl.
The eluted fractions containing the purified protein were collected, and the protein was subsequently dialyzed and stored in a buffer composed of 50 mM Tris-HCl (pH 7.0), 25 mM NaCl, 1 mM EDTA, and 50% glycerol. The catalytic activities of the purified protein samples were determined, and aliquots were stored at -80 °C for further use.
3.2 RNase H Polymerase-Independent Cleavage Assay
The HIV-1 RT-associated RNase H activity was measured as described.3 In summary, the reaction was performed in a black 96-well plate with a total volume of 100 μL. The reaction mix consisted of 50 mM Tris HCl (pH 7.8), 6 mM MgCl2, 1 mM dithiothreitol […]

[2] = recombinant HIV-1 wt RT, hybrid RNA/DNA substrate, 37 °C, 1 hour

Work on COC(=O)C1=C(C)N=C2SC(=NNc3ccccc3O)C(=O)N2C1c1ccccc1 (centres unmarked) [Compound 10a, Methyl 2-(2-(2-hydroxyphenyl)hydrazineylidene)-7-methyl-3-oxo-5-phenyl-2,3-dihydro-5H-thiazolo[3,2-a]pyrimidine-6-carboxylate] yielded an IC50 [1, 2] of 18.2 ± 0.85 µM and a melting point of 227 to 229 °C.
Compound COC(=O)C1=C(C)N=C2SC(=NNc3cc(OC)c(OC)c(OC)c3)C(=O)N2C1c1ccccc1 (centres unmarked) [Compound 10c, Methyl 7-methyl-3-oxo-5-phenyl-2-(2-(3,4,5-trimethoxyphenyl)hydrazineylidene)-2,3-dihydro-5H-thiazolo[3,2-a]pyrimidine-6-carboxylate] has an IC50 [1, 2] of 24.4 ± 1.25 µM and a melting point of 211 to 213 °C.
COC(=O)C1=C(C)N=C2S/C(=N\Nc3ccccc3C(=O)OC)C(=O)N2C1c1ccccc1 (centres unmarked) [Compound 10d, Methyl 2-((2-(methoxycarbonyl)phenyl)diazenyl)-7-methyl-3-oxo-5-phenyl-2,3-dihydro-5H-thiazolo[3,2-a]pyrimidine-6-carboxylate] showed an IC50 [1, 2] of 8.27 ± 0.39 µM and a melting point of 184 to 186 °C.
For COC(=O)C1=C(C)N=C2SC(=NNc3ccc(OC)cc3S(=O)(=O)O)C(=O)N2C1c1ccccc1 (centres unmarked) [Compound 10e, 5-Methoxy-2-(2-(6-(methoxycarbonyl)-7-methyl-3-oxo-5-phenyl-5H-thiazolo[3,2-a]pyrimidin-2(3H)-ylidene)hydrazineyl)benzenesulfonic acid], the IC50 [1, 2] was 58.4 ± 1.71 µM and the melting point was 247 to 249 °C.
COC(=O)C1=C(C)N=C2S/C(=N\Nc3ccc4ccccc4c3S(=O)(=O)O)C(=O)N2C1c1ccccc1 (centres unmarked) [Compound 10f] gave an IC50 [1, 2] of 7.04 ± 0.57 µM and a melting point of 289 to 293 °C.
Work on COC(=O)C1=C(C)N=C2SC(=NNc3ccccc3C(C)=O)C(=O)N2C1c1ccccc1 (centres unmarked) [Compound 10g, Methyl 2-(2-(2-acetylphenyl)hydrazineylidene)-7-methyl-3-oxo-5-phenyl-2,3-dihydro-5H-thiazolo[3,2-a]pyrimidine-6-carboxylate] yielded an IC50 [1, 2] of 9.01 ± 2.17 µM and a melting point of 199 to 202 °C.
In the case of COC(=O)C1=C(C)N=C2SC(=NNc3ccc(OC)c(OC)c3)C(=O)N2C1c1ccccc1 (centres unmarked) [Compound 10h, Methyl 2-(2-(3,4-dimethoxyphenyl)hydrazineylidene)-7-methyl-3-oxo-5-phenyl-2,3-dihydro-5H-thiazolo[3,2-a]pyrimidine-6-carboxylate], the IC50 [1, 2] is reported as 14.4 ± 1.23 µM and the melting point is reported as 204 to 206 °C.
Compound COC(=O)C1=C(C)N=C2SC(=NNc3ccccc3OC)C(=O)N2C1c1ccccc1 (centres unmarked) [Compound 10i, Methyl 2-(2-(2-methoxyphenyl)hydrazineylidene)-7-methyl-3-oxo-5-phenyl-2,3-dihydro-5H-thiazolo[3,2-a]pyrimidine-6-carboxylate] has an IC50 [1, 2] of 8.32 ± 0.06 µM and a melting point of 189 to 192 °C.
In the case of COC(=O)C1=C(C)N=C2SC(=NNc3ccccc3)C(=O)N2C1c1ccccc1 (centres unmarked) [Compound 10j, Methyl 7-methyl-3-oxo-5-phenyl-2-(2-phenylhydrazineylidene)-2,3-dihydro-5H-thiazolo[3,2-a]pyrimidine-6-carboxylate], the IC50 [1, 2] is reported as 21.45 ± 0.1 µM and the melting point is reported as 124 to 127 °C.
In the case of COC(=O)C1=C(C)N=C2S/C(=N\Nc3ccccc3S(=O)(=O)O)C(=O)N2C1c1ccccc1 (centres unmarked) [Compound 10k, (2-(6-(Methoxycarbonyl)-7-methyl-3-oxo-5-phenyl-5H-thiazolo[3,2-a]pyrimidin-2(3H)-ylidene)hydrazineyl)benzenesulfonic acid], the IC50 [1, 2] is reported as > 100 µM, the remaining activity at 100 µM [1] is reported as 85% and the melting point is reported as 262 to 266 °C.
COC(=O)C1=C(C)N=C2SC(=NNc3cccc([N+](=O)[O-])c3)C(=O)N2C1c1ccccc1 (centres unmarked) [Compound 10l, Methyl 7-methyl-2-(2-(3-nitrophenyl)hydrazineylidene)-3-oxo-5-phenyl-2,3-dihydro-5H-thiazolo[3,2-a]pyrimidine-6-carboxylate] gave an IC50 [1, 2] of 6.41 ± 0.24 µM and a melting point of 250 to 252 °C.
With COC(=O)C1=C(C)N=C2SC(=NNc3cccc(C(C)=O)c3)C(=O)N2C1c1ccccc1 (centres unmarked) [Compound 10m, Methyl 2-(2-(3-acetylphenyl)hydrazineylidene)-7-methyl-3-oxo-5-phenyl-2,3-dihydro-5H-thiazolo[3,2-a]pyrimidine-6-carboxylate] the IC50 [1, 2] was 18.4 ± 0.79 µM and the melting point was 213 to 216 °C.
Compound COC(=O)C1=C(C)N=C2SC(=NNc3cccc(C(=O)OC)c3)C(=O)N2C1c1ccccc1 (centres unmarked) [Compound 10n, Methyl 2-(2-(3-(methoxycarbonyl)phenyl)hydrazineylidene)-7-methyl-3-oxo-5-phenyl-2,3-dihydro-5H-thiazolo[3,2-a]pyrimidine-6-carboxylate] has an IC50 [1, 2] of 7.03 ± 0.17 µM and a melting point of 214 to 216 °C.
In the case of COC(=O)C1=C(C)N=C2SC(=NNc3ccccc3OC)C(=O)N2C1c1ccc(OC)c(OC)c1OC (centres unmarked) [Compound 11a, Methyl 2-(2-(2-methoxyphenyl)hydrazineylidene)-7-methyl-3-oxo-5-(2,3,4-trimethoxyphenyl)-2,3-dihydro-5H-thiazolo[3,2-a]pyrimidine-6-carboxylate], the IC50 [1, 2] is reported as 11.8 ± 0.91 µM and the melting point is reported as 178 to 180 °C.
Compound COC(=O)C1=C(C)N=C2SC(=NNc3ccccc3)C(=O)N2C1c1ccc(OC)c(OC)c1OC (centres unmarked) [Compound 11b, Methyl 7-methyl-3-oxo-2-(2-phenylhydrazineylidene)-5-(2,3,4-trimethoxyphenyl)-2,3-dihydro-5H-thiazolo [3,2-a]pyrimidine-6-carboxylate] has an IC50 [1, 2] of 48.9 ± 4.73 µM and a melting point of 189 to 192 °C.
Work on COC(=O)C1=C(C)N=C2SC(=NNc3cccc([N+](=O)[O-])c3)C(=O)N2C1c1ccc(OC)c(OC)c1OC (centres unmarked) [Compound 11d, Methyl 7-methyl-2-(2-(3-nitrophenyl)hydrazineylidene)-3-oxo-5-(2,3,4-trimethoxyphenyl)-2,3-dihydro-5H-thiazolo[3,2-a]pyrimidine-6-carboxylate] yielded an IC50 [1, 2] of 10.1 ± 1.64 µM and a melting point of 236 to 238 °C.
In the case of COC(=O)C1=C(C)N=C2SC(=NNc3ccccc3S(=O)(=O)O)C(=O)N2C1c1ccc(OC)c(OC)c1OC (centres unmarked) [Compound 11e, 2-(2-(6-(Methoxycarbonyl)-7-methyl-3-oxo-5-(2,3,4-trimethoxyphenyl)-5H-thiazolo[3,2-a]pyrimidin-2(3H)-ylidene)hydrazineyl)benzenesulfonic acid], the IC50 [1, 2] is reported as > 100 µM, the remaining activity at 100 µM [1] is reported as 97% and the melting point is reported as 238 to 240 °C.
In the case of COC(=O)C1=C(C)N=C2SC(=NNc3ccc(OC)cc3S(=O)(=O)O)C(=O)N2C1c1ccc(OC)c(OC)c1OC (centres unmarked) [Compound 11f, 5-Methoxy-2-(2-(6-(methoxycarbonyl)-7-methyl-3-oxo-5-(2,3,4-trimethoxyphenyl)-5H-thiazolo[3,2-a]pyrimidin-2(3H)-ylidene)hydrazineyl)benzenesulfonic acid], the IC50 [1, 2] is reported as > 100 µM, the remaining activity at 100 µM [1] is reported as 61% and the melting point is reported as 244 to 246 °C.
Compound COC(=O)C1=C(C)N=C2S/C(=N\Nc3ccc4ccccc4c3S(=O)(=O)O)C(=O)N2C1c1ccc(OC)c(OC)c1OC (centres unmarked) [Compound 11g, (2-(6-(Methoxycarbonyl)-7-methyl-3-oxo-5-(2,3,4-trimethoxyphenyl)-5H-thiazolo[3,2-a]pyrimidin-2(3H)-ylidene)hydrazineyl)naphthalene-1-sulfonic acid] has a melting point of 241 to 244 °C.
With CCOC(=O)C(=O)CC(=O)/C=C/c1cccn1Cc1ccc(F)cc1 [RDS1643, reference compound] the “IC50, compound concentration required to reduce HIV-1 RT-associated RNase H activity by 50%” value [1, 2] was 8.6 ± 1.30 µM.
